The target in series [1] is T1, P2X purinoceptor 7 (Homo sapiens, UniProt Q99572).
T1 sequence (Q99572 whole entry): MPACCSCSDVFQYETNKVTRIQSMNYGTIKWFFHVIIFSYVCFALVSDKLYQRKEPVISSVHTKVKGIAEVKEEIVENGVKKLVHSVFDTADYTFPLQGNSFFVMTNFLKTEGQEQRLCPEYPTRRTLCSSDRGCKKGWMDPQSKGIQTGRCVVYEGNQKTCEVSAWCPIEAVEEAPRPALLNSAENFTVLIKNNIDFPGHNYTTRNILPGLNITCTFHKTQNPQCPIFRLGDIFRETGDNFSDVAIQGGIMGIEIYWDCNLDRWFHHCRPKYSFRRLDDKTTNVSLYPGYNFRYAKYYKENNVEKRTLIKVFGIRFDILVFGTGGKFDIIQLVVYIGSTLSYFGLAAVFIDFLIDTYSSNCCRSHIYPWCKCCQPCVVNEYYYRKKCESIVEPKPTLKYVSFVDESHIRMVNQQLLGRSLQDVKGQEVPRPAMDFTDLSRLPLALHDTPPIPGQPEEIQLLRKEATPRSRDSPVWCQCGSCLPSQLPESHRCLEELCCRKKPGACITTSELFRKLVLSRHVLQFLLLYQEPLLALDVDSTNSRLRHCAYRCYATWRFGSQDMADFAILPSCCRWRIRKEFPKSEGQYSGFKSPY
Description: Antagonist activity at P2X7R in LPS-stimulated human THP1 cells assessed as inhibition of BzATP-induced IL-1beta release preincubated for 30 mins followed by BzATP stimulation and measured after 30 mins by sandwich ELISA. (ELISA stands for enzyme-linked immunosorbent assay.)

For series [2], the target named is T1, P2X purinoceptor 7. Description: Antagonist activity at human P2X7 receptor expressed in HEK293 cells assessed as inhibition of BzATP-induced YO PRO dye uptake preincubated for 20 mins followed by YO PRO dye and BzATP addition measured after 30 mins by fluorescence assay. It is filed as cell-based.
For series [3], the system named is MDR. The series is described as follows: Efflux ratio of apparent permeability in MDCK cells expressing MDR. The series is classed as ADME, cell-based, Canis lupus familiaris. The following applies: dog, MDCK-MDR1.
Series [4] can be described thus: Intrinsic clearance in mouse liver microsomes. It is filed as ADME, Microsome. The following applies: read-out: CLH. A general note: Liver microsomes are vesicles of endoplasmic reticulum, rich in cytochrome P450 enzymes.
Series [5] can be described thus: Intrinsic clearance in human liver microsomes. It is filed as ADME, Microsome. The following applies: read-out: CLH.
For series [6], the system named is MDR. Description: Apparent permeability across apical to basolateral side in MDCK cells expressing MDR. It is filed as ADME, cell-based, Canis lupus familiaris. The following applies: dog, MDCK-MDR1.
The nature of series [7]: Intrinsic clearance in rat liver microsomes. It is filed as ADME, Microsome. The settings on record: read-out: CLH.

SMILES strings stand for the structures.

As for `COCCNc1ccc2c(C(=O)NCC3CCC(F)(F)CC3)c(Cl)ccc2n1`, the IC50 (as a rule, the concentration that gives 50% inhibition) in series [1] was 180 nM; in series [2] it was 89 nM.

As for `CN(C)[C@@H]1CCN(c2ccc3c(C(=O)NCC4CCC(F)(F)CC4)c(Cl)ccc3n2)C1`, the efflux ratio – broadly, a quotient of directional permeabilities that is used to spot active efflux – in series [3] stood at 7.2. Besides, the microsomal CLint worked out at 50 µL/min/mg in series [4], 45 µL/min/mg in series [5] and 22 µL/min/mg in series [7]. Further, the Papp A→B (in general, the apparent permeability from the apical to the basolateral side of a cell layer) in series [6] turned out to be 6.2 ×10⁻⁶ cm/s. Further, the figures for the IC50 in series [1] and in series [2] were 40 nM and 27 nM, respectively.

On to `O=C(NCC1CCC(F)(F)CC1)c1c(Cl)ccc2nc(N3CCC(NCCO)C3)ccc12` (stereo unspecified), for which, in series [3], the efflux ratio came out at 114. For the same compound, the microsomal CLint in series [4] worked out at 10 µL/min/mg; in series [5], 17 µL/min/mg; in series [7], 10 µL/min/mg. In addition, the Papp A→B in series [6] was determined as 0.18 ×10⁻⁶ cm/s. Also, the IC50 was found to be 12 nM in series [1] and 10 nM in series [2].

Take `O=C(NCC1CCC(F)(F)CC1)c1c(Cl)ccc2nc(C3CCCC3)ccc12`: the IC50 in series [1] is 160 nM; in series [2], 94 nM.

Regarding `O=C(NCC1CCC(F)(F)CC1)c1c(Cl)ccc2nc(N3CC[C@@H](F)C3)ccc12`, the efflux ratio in series [3] stood at 0.69. Moreover, the values for the microsomal CLint in series [4], in series [5] and in series [7] were 10 µL/min/mg, 12 µL/min/mg and 31 µL/min/mg, respectively. Further, the Papp A→B in series [6] was 18.4 ×10⁻⁶ cm/s. Further, the IC50 in series [1] was determined as 104 nM; in series [2], 19 nM.

As to `CC1(C)OB(C2=CCCC2)OC1(C)C`, the IC50 is 75 nM in series [1] and 31 nM in series [2].

As to `O=C(NCC1CCC(F)(F)CC1)c1c(Cl)ccc2nc(C3=CCCC3)ccc12`, the IC50 in series [1] stood at 90 nM; in series [2], 36 nM.

As to `COCCOc1ccc2c(C(=O)NCC3CCC(F)(F)CC3)c(Cl)ccc2n1`, the IC50 came out at 140 nM in series [1] and 25 nM in series [2].

On to `O=C(NCC1CCC(F)(F)CC1)c1c(Cl)ccc2ncccc12`, for which the figures for the IC50 in series [1] and in series [2] were 220 nM and 230 nM, respectively.

In the case of `O=C(NCC1CCC(F)(F)CC1)c1c(Cl)ccc2nc(N3CCCC3)ccc12`, the efflux ratio in series [3] is 1.2. For the same compound, the microsomal CLint in series [4] came to 49 µL/min/mg; in series [5], 87 µL/min/mg; in series [7], 57 µL/min/mg. In series [6], the Papp A→B was 31.8 ×10⁻⁶ cm/s. Also, the IC50 in series [1] was 108 to 110 nM; in series [2], 37 nM.

In the case of `O=C(NCC1CCC(F)(F)CC1)c1c(Cl)ccc2nc(NCCO)ccc12`, the IC50 turned out to be 76 nM in series [1] and 72 nM in series [2].

For the compound `O=C(NCC1CCC(F)(F)CC1)c1c(Cl)ccc2nc(N3CCC(CCO)C3)ccc12` (stereo unspecified), in series [3], the efflux ratio stood at 3.8. In addition, the microsomal CLint in series [4] came to 23 µL/min/mg; in series [5], 32 µL/min/mg; in series [7], 46 µL/min/mg. Further, the Papp A→B in series [6] came out at 16.5 ×10⁻⁶ cm/s. The 50% inhibitory concentration (IC50) in series [1] was determined as 100 nM; in series [2] it was 47 nM.

As to `CN(C)[C@H]1CCN(c2ccc3c(C(=O)NCC4CCC(F)(F)CC4)c(Cl)ccc3n2)C1`, the efflux ratio in series [3] turned out to be 6.9. The microsomal CLint turned out to be 24 µL/min/mg in series [4], 80 µL/min/mg in series [5] and 25 µL/min/mg in series [7]. Besides, the Papp A→B in series [6] amounted to 6 ×10⁻⁶ cm/s. For the same compound, the values for the IC50 in series [1] and in series [2] were 75 nM and 50 nM, respectively.

For the origin of these results see ChEMBL document CHEMBL4340547, “Synthesis and SAR development of quinoline analogs as novel P2X7 receptor antagonists” (Bioorg Med Chem Lett, 2019).
